We go through 17 molecules from patent publication US9359358B2, “Cyclohexyl azetidine derivatives as JAK inhibitors” (Incyte Holdings Corporation, priority 2011, dated 2016).

Where a name gives a salt, the structure may show the parent alone.

Assay [1] addresses T1, human JAK1 (Homo sapiens, UniProt P23458).
T1 construct: human JAK1 (a.a. 837-1142); His tag (N); made in house; host or cells: insect cells (baculovirus)
Nature of the assay: In Vitro JAK Kinase Assay (HTRF, phosphorylation of a biotinylated peptide), JAK1. The class given is biochemical. As to conditions: catalytic domain a.a. 837-1142, assay of Example A. The protocol: (§1) The catalytic activity of JAK1, JAK2 or JAK3 was assayed by measuring the phosphorylation of a biotinylated peptide. The phosphorylated peptide was detected by homogenous time resolved fluorescence (HTRF). […] Reactions were carried out at room temperature for 1 hour and then stopped with 20 μL 45 mM EDTA, 300 nM SA-APC, 6 nM Eu-Py20 in assay buffer (Perkin Elmer, Boston, Mass.). Binding to the Europium labeled antibody took place for 40 minutes and HTRF signal was measured on a Fusion plate reader (Perkin Elmer, Boston, Mass.).

The target of assay [2] is T2, human JAK2 (Homo sapiens, UniProt O60674).
T2 construct: JAK2 (a.a. 828-1132); His tag (N); made in house; host or cells: insect cells (baculovirus)
T2 sequence (O60674 828-1132): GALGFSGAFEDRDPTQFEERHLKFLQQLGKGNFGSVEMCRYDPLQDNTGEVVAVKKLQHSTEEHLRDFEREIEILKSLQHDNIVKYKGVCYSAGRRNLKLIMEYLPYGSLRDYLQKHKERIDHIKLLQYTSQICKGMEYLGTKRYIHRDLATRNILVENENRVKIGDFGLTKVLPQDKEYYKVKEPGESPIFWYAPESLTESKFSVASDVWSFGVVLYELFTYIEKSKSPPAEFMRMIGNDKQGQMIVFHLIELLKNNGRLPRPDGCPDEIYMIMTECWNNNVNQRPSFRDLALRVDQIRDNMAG
Kind of assay: In Vitro JAK Kinase Assay (HTRF, phosphorylation of a biotinylated peptide), JAK2. Type of assay: biochemical. As to conditions: assay of Example A. The protocol:
as §1
In general terms: In TR-FRET formats the signal depends on donor and acceptor labels being close together.

T1 sequence (P23458 849-1154): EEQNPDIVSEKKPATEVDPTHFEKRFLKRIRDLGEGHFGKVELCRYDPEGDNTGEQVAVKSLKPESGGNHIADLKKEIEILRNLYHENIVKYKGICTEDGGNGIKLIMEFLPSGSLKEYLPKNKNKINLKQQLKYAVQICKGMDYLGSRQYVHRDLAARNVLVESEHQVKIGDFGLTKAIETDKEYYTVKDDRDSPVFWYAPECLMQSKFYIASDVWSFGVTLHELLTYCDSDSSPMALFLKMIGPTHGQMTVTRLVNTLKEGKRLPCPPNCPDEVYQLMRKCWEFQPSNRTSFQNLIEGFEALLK

The IC50 is the concentration that gives 50% inhibition. Higher therefore signals a need for much substance. In assay [1] (Table 4), “2-(1-(cis-4-((6-(((2-(1H-imidazol-4- yl)ethyl)amino)methyl)-2- (trifluoromethyl)pyrimidin-4- yl)oxy)cyclohexyl)-3-(4-(7H-pyrrolo[2,3- d]pyrimidin-4-yl)-1H-pyrazol-1- yl)azetidin-3-yl)acetonitrile tris(trifluoroacetate) (salt) [Example 39]” returned an IC50 of under 10 nM. In addition, the “JAK2/JAK1 IC50 ratio” value in assay [2] (Table 4) was “≧10”. For the molecule `CCC(C)NC(=O)c1cc(O[C@H]2CC[C@@H](N3CC(CC#N)(n4cc(-c5ncnc6[nH]ccc56)cn4)C3)CC2)nc(C(F)(F)F)c1.O=C(O)C(F)(F)F.O=C(O)C(F)(F)F` (relative stereo) [Example 88, N-(sec-butyl)-2-[(cis-4-{3-(cyanomethyl)-3-[4-(7H-pyrrolo[2,3-d]pyrimidin-4-yl)-1H-pyrazol-1-yl]azetidin-1-yl}cyclohexyl)oxy]-6-(trifluoromethyl)isonicotinamide bis(trifluoroacetate)], in assay [1] (Table 5), the IC50 was under 10 nM. In assay [2] (Table 5), the “JAK2/JAK1 IC50 ratio” value is “≧10”. For the molecule `CC(O)(CO)c1cc(OC2CCC(N3CC(CC#N)(n4cc(-c5ncnc6[nH]ccc56)cn4)C3)CC2)nc(C(F)(F)F)n1` (single isomer, unassigned) [Example 57, {1-(cis-4-{[6-(1,2-dihydroxy-1-methylethyl)-2-(trifluoromethyl)pyrimidin-4-yl]oxy}cyclohexyl)-3-[4-(7H-pyrrolo[2,3-d]pyrimidin-4-yl)-1H-pyrazol-1-yl]azetidin-3-yl}acetonitrile tris(trifluoroacetate) (salt)], the half-inhibitory concentration (IC50) in assay [1] (Table 4) is under 10 nM. In addition, in assay [2] (Table 4), the “JAK2/JAK1 IC50 ratio” value is “≧10”.

`CC(O)(CO)c1cc(OC2CCC(N3CC(CC#N)(n4cc(-c5ncnc6[nH]ccc56)cn4)C3)CC2)nc(C(F)(F)F)n1` (single isomer, unassigned) [Example 57a, {1-(cis-4-{[6-(1,2-dihydroxy-1-methylethyl)-2-(trifluoromethyl)pyrimidin-4-yl]oxy}cyclohexyl)-3-[4-(7H-pyrrolo[2,3-d]pyrimidin-4-yl)-1H-pyrazol-1-yl]azetidin-3-yl}acetonitrile tris(trifluoroacetate) (salt)] yielded an IC50 in assay [1] (Table 4) of under 10 nM. In assay [2] (Table 4), the “JAK2/JAK1 IC50 ratio” value is recorded as “≧10”. In the same order, the values of `CC(O)c1cc(OC2CCC(N3CC(CC#N)(n4cc(-c5ncnc6[nH]ccc56)cn4)C3)CC2)nc(C(F)(F)F)n1` (single isomer, unassigned) [Example 58, {1-(cis-4-{[6-(1-hydroxyethyl)-2-(trifluoromethyl)pyrimidin-4-yl]oxy}cyclohexyl)-3-[4-(7H-pyrrolo[2,3-d]pyrimidin-4-yl)-1H-pyrazol-1-yl]azetidin-3-yl}acetonitrile tris(trifluoroacetate) (salt)] are under 10 nM and “≧10”. `CC(O)c1cc(OC2CCC(N3CC(CC#N)(n4cc(-c5ncnc6[nH]ccc56)cn4)C3)CC2)nc(C(F)(F)F)n1` (single isomer, unassigned) [Example 58a, {1-(cis-4-{[6-(1-hydroxyethyl)-2-(trifluoromethyl)pyrimidin-4-yl]oxy}cyclohexyl)-3-[4-(7H-pyrrolo[2,3-d]pyrimidin-4-yl)-1H-pyrazol-1-yl]azetidin-3-yl}acetonitrile tris(trifluoroacetate) (salt)] registered an IC50 in assay [1] (Table 4) of under 10 nM. Besides, the “JAK2/JAK1 IC50 ratio” value in assay [2] (Table 4) was “≧10”.

With `CC(CO)c1cc(OC2CCC(N3CC(CC#N)(n4cc(-c5ncnc6[nH]ccc56)cn4)C3)CC2)nc(C(F)(F)F)n1` (single isomer, unassigned) [Example 59, {1-(cis-4-{[6-(2-hydroxy-1-methylethyl)-2-(trifluoromethyl)pyrimidin-4-yl]oxy}cyclohexyl)-3-[4-(7H-pyrrolo[2,3-d]pyrimidin-4-yl)-1H-pyrazol-1-yl]azetidin-3-yl}acetonitrile bis(trifluoroacetate) (salt)], the IC50 in assay [1] (Table 4) is under 10 nM. In addition, the “JAK2/JAK1 IC50 ratio” value in assay [2] (Table 4) is given as “≧10”. For `CC(CO)c1cc(OC2CCC(N3CC(CC#N)(n4cc(-c5ncnc6[nH]ccc56)cn4)C3)CC2)nc(C(F)(F)F)n1` (single isomer, unassigned) [Example 59a, {1-(cis-4-{[6-(2-hydroxy-1-methylethyl)-2-(trifluoromethyl)pyrimidin-4-yl]oxy}cyclohexyl)-3-[4-(7H-pyrrolo[2,3-d]pyrimidin-4-yl)-1H-pyrazol-1-yl]azetidin-3-yl}acetonitrile bis(trifluoroacetate) (salt)] the same measures were under 10 nM and “≧10”. In the case of `N#CCC1(n2cc(-c3ncnc4[nH]ccc34)cn2)CN([C@H]2CC[C@@H](Oc3cc(CN4CCC[C@@H]4CO)cc(C(F)(F)F)n3)CC2)C1.O=C(O)C(F)(F)F.O=C(O)C(F)(F)F.O=C(O)C(F)(F)F` (stereo in doubt) [Example 93, {1-(cis-4-{[4-{[(2R)-2-(hydroxymethyl)pyrrolidin-1-yl]methyl}-6-(trifluoromethyl)pyridin-2-yl]oxy}cyclohexyl)-3-[4-(7H-pyrrolo[2,3-d]pyrimidin-4-yl)-1H-pyrazol-1-yl]azetidin-3-yl}acetonitrile tris(trifluoroacetate)], the IC50 in assay [1] (Table 5) was under 10 nM. Further, the “JAK2/JAK1 IC50 ratio” value in assay [2] (Table 5) is reported as “≧10”. For `N#CCC1(n2cc(-c3ncnc4[nH]ccc34)cn2)CN([C@H]2CC[C@@H](Oc3cc(CN4CCC[C@H]4CO)cc(C(F)(F)F)n3)CC2)C1.O=C(O)C(F)(F)F.O=C(O)C(F)(F)F.O=C(O)C(F)(F)F` (stereo in doubt) [Example 94, {1-(cis-4-{[4-{[(2S)-2-(hydroxymethyl)pyrrolidin-1-yl]methyl}-6-(trifluoromethyl)pyridin-2-yl]oxy}cyclohexyl)-3-[4-(7H-pyrrolo[2,3-d]pyrimidin-4-yl)-1H-pyrazol-1-yl]azetidin-3-yl}acetonitrile tris(trifluoroacetate)] the same measures were under 10 nM and “≧10”. In turn, `CN(C)Cc1cc(O[C@H]2CC[C@@H](N3CC(CC#N)(n4cc(-c5ncnc6[nH]ccc56)cn4)C3)CC2)nc(C(F)(F)F)n1` [Example 1, {1-(cis-4-{[6-[(Dimethylamino)methyl]-2-(trifluoromethyl)pyrimidin-4-yl]oxy}cyclohexyl)-3-[4-(7H-pyrrolo[2,3-d]pyrimidin-4-yl)-1H-pyrazol-1-yl]azetidin-3-yl}acetonitrile tetrakis(trifluoroacetate)] had an IC50 in assay [1] (Table 4) of under 10 nM. For the same molecule, the “JAK2/JAK1 IC50 ratio” value in assay [2] (Table 4) is recorded as “≧10”.

In the case of `N#CCC1(n2cc(-c3ncnc4[nH]ccc34)cn2)CN([C@H]2CC[C@@H](Oc3cc(CO)nc(C(F)(F)F)n3)CC2)C1` [Example 2, {1-(cis-4-{[6-(Hydroxymethyl)-2-(trifluoromethyl)pyrimidin-4-yl]oxy}cyclohexyl)-3-[4-(7H-pyrrolo[2,3-d]pyrimidin-4-yl)-1H-pyrazol-1-yl]azetidin-3-yl}acetonitrile bis(trifluoroacetate)], the IC50 in assay [1] (Table 4) was under 10 nM. Also, the “JAK2/JAK1 IC50 ratio” value in assay [2] (Table 4) is reported as “≧10”. `N#CCC1(n2cc(-c3ncnc4[nH]ccc34)cn2)CN([C@H]2CC[C@@H](Oc3cc(CN)nc(C(F)(F)F)n3)CC2)C1` [Example 3, {1-(cis-4-{[6-(Aminomethyl)-2-(trifluoromethyl)pyrimidin-4-yl]oxy}cyclohexyl)-3-[4-(7H-pyrrolo[2,3-d]pyrimidin-4-yl)-1H-pyrazol-1-yl]azetidin-3-yl}acetonitrile tetrakis(trifluoroacetate)] returned an IC50 in assay [1] (Table 4) of under 10 nM. For the same molecule, the “JAK2/JAK1 IC50 ratio” value in assay [2] (Table 4) is listed as “≧10”. In turn, `N#CCC1(n2cc(-c3ncnc4[nH]ccc34)cn2)CN([C@H]2CC[C@@H](Oc3cc(CN4CCCCC4)nc(C(F)(F)F)n3)CC2)C1` [Example 30, {1-(cis-4-{[6-(piperidin-1-ylmethyl)-2-(trifluoromethyl)pyrimidin-4-yl]oxy}cyclohexyl)-3-[4-(7H-pyrrolo[2,3-d]pyrimidin-4-yl)-1H-pyrazol-1-yl]azetidin-3-yl}acetonitrile tris(trifluoroacetate)] gave an IC50 in assay [1] (Table 4) of under 10 nM. Still for that read-out and setting: to `CC(C)CNCc1cc(O[C@H]2CC[C@@H](N3CC(CC#N)(n4cc(-c5ncnc6[nH]ccc56)cn4)C3)CC2)nc(C(F)(F)F)n1` [Example 35, {1-(cis-4-{[6-[(isobutylamino)methyl]-2-(trifluoromethyl)pyrimidin-4-yl]oxy}cyclohexyl)-3-[4-(7H-pyrrolo[2,3-d]pyrimidin-4-yl)-1H-pyrazol-1-yl]azetidin-3-yl}acetonitrile tris(trifluoroacetate)] belongs under 10 nM. With `CC(C)(CO)NCc1cc(O[C@H]2CC[C@@H](N3CC(CC#N)(n4cc(-c5ncnc6[nH]ccc56)cn4)C3)CC2)nc(C(F)(F)F)c1` [Example 71, {1-(cis-4-{[4-{[(2-hydroxy-1,1-dimethylethyl)amino]methyl}-6-(trifluoromethyl)pyridin-2-yl]oxy}cyclohexyl)-3-[4-(7H-pyrrolo[2,3-d]pyrimidin-4-yl)-1H-pyrazol-1-yl]azetidin-3-yl}acetonitrile tris(trifluoroacetate) (salt)], the 50% inhibitory concentration (IC50) in assay [1] (Table 5) was under 10 nM. Same read-out and setting: to `N#CCC1(n2cc(-c3ncnc4[nH]ccc34)cn2)CN([C@H]2CC[C@@H](Oc3cc(CN4CCC(O)CC4)cc(C(F)(F)F)n3)CC2)C1` [Example 97, {1-(cis-4-{[4-[(4-hydroxypiperidin-1-yl)methyl]-6-(trifluoromethyl)pyridin-2-yl]oxy}cyclohexyl)-3-[4-(7H-pyrrolo[2,3-d]pyrimidin-4-yl)-1H-pyrazol-1-yl]azetidin-3-yl}acetonitrile tris(trifluoroacetate)] belongs under 10 nM.
